Laboratory results: patent publication US9326506B2, “Preparation method, agricultural composition and applications of natural brassinolide analogs” (CHENGDU NEWSUN CROPSCIENCE CO., LTD, priority 2012, dated 2016)

Tested on: rice
Assay: Low temperature assay on rice seedlings
Type: in vivo
Method: According to a low temperature assay, we measured parameters including plant height, number of leaf, area of leaf, number of tiller, weight of root at low temperature to completely determine effects of the natural brassinolide analogues on the resistance to low temperature of a plant.
The natural brassinolide analogues, BR1, BR2, BR3, BR4, BR5 and BR6, used herein, were those prepared by the method of Example 1. Respectively the analogues were dissolved into 95% (V/V) ethanol solution, and then diluted with pure water to 1 mg/L, 0.1 mg/L, 0.01 mg/L, 0.001 mg/L and 0.0001 mg/L. In addition, pure water was used as a control.
After rice seeds were disinfected by using 5% sodium hypochlorite solution treatment, they were rinsed with distilled water until their pH>7, placed into a petri dish in a dark incubator, and cultured by using water at 30° C.±2° C. for 9 days. Then respectively the nine-day-old etiolated seedlings of rice were immersed in the above solutions containing different concentrations of the natural brassinolide analogues or pure water, and cultured at the temperature of 1° C., 2° C., 3° C., 4° C. and 5° C. for 24 hr. The parameters including plant height, area of leaf and weight of root after 3, 6, 9 and 12 days and number of leaf and number of tiller after 12 days were measured.

**Q.** How did the Area of leaf (0.0001 mg/l, 1 °C, 3 days) turn out when CC[C@@H](C(C)C)[C@@H](O)[C@H](O)[C@@H](C)[C@H]1CCC2C3COC(=O)C4C[C@H](O)[C@H](O)C[C@]4(C)C3CC[C@@]21C (stereo partly drawn) [BR2] was run?
**A.** 9.8 cm^2

**Q.** What about the Height (0.0001 mg/l, 1 °C, 3 days) of the same molecule?
**A.** 6.8 cm

**Q.** What about the Weight of root (0.0001 mg/l, 1 °C, 3 days) of the same molecule?
**A.** 2.8 g

**Q.** And the Area of leaf (0.0001 mg/l, 1 °C, 6 days)?
**A.** 11.2 cm^2

**Q.** And the Height (0.0001 mg/l, 1 °C, 6 days)?
**A.** 6.9 cm

**Q.** What about the Weight of root (0.0001 mg/l, 1 °C, 6 days) of the same molecule?
**A.** 3.1 g

**Q.** And the Area of leaf (0.0001 mg/l, 1 °C, 9 days)?
**A.** 12.4 cm^2

**Q.** And the Height (0.0001 mg/l, 1 °C, 9 days)?
**A.** 7 cm

**Q.** What about the Weight of root (0.0001 mg/l, 1 °C, 9 days) of the same molecule?
**A.** 3.4 g

**Q.** And the Area of leaf (0.0001 mg/l, 1 °C, 12 days)?
**A.** 13.1 cm^2

**Q.** What about the Height (0.0001 mg/l, 1 °C, 12 days) of the same molecule?
**A.** 7.2 cm

**Q.** And the Number of leaf (0.0001 mg/l, 1 °C, 12 days)?
**A.** 3

**Q.** And the Number of tiller (0.0001 mg/l, 1 °C, 12 days)?
**A.** 3

**Q.** And the Weight of root (0.0001 mg/l, 1 °C, 12 days)?
**A.** 3.9 g

**Q.** And the Area of leaf (0.0001 mg/l, 2 °C, 3 days)?
**A.** 10 cm^2

**Q.** And the Height (0.0001 mg/l, 2 °C, 3 days)?
**A.** 6.8 cm

**Q.** What about the Weight of root (0.0001 mg/l, 2 °C, 3 days) of the same molecule?
**A.** 2.8 g

**Q.** And the Area of leaf (0.0001 mg/l, 2 °C, 6 days)?
**A.** 11.7 cm^2

**Q.** What about the Height (0.0001 mg/l, 2 °C, 6 days) of the same molecule?
**A.** 7 cm

**Q.** What about the Weight of root (0.0001 mg/l, 2 °C, 6 days) of the same molecule?
**A.** 3.0 g

**Q.** And the Area of leaf (0.0001 mg/l, 2 °C, 9 days)?
**A.** 12.4 cm^2

**Q.** And the Height (0.0001 mg/l, 2 °C, 9 days)?
**A.** 7.1 cm

**Q.** And the Weight of root (0.0001 mg/l, 2 °C, 9 days)?
**A.** 3.2 g

**Q.** What about the Area of leaf (0.0001 mg/l, 2 °C, 12 days) of the same molecule?
**A.** 13 cm^2

**Q.** And the Height (0.0001 mg/l, 2 °C, 12 days)?
**A.** 7.4 cm

**Q.** And the Number of leaf (0.0001 mg/l, 2 °C, 12 days)?
**A.** 3

**Q.** What about the Number of tiller (0.0001 mg/l, 2 °C, 12 days) of the same molecule?
**A.** 3

**Q.** And the Weight of root (0.0001 mg/l, 2 °C, 12 days)?
**A.** 3.9 g

**Q.** What about the Area of leaf (0.0001 mg/l, 3 °C, 3 days) of the same molecule?
**A.** 10 cm^2

**Q.** What about the Height (0.0001 mg/l, 3 °C, 3 days) of the same molecule?
**A.** 6.9 cm

**Q.** And the Weight of root (0.0001 mg/l, 3 °C, 3 days)?
**A.** 2.5 g

**Q.** What about the Area of leaf (0.0001 mg/l, 3 °C, 6 days) of the same molecule?
**A.** 11.8 cm^2

**Q.** What about the Height (0.0001 mg/l, 3 °C, 6 days) of the same molecule?
**A.** 7.2 cm

**Q.** What about the Weight of root (0.0001 mg/l, 3 °C, 6 days) of the same molecule?
**A.** 2.6 g

**Q.** What about the Area of leaf (0.0001 mg/l, 3 °C, 9 days) of the same molecule?
**A.** 12.3 cm^2

**Q.** And the Height (0.0001 mg/l, 3 °C, 9 days)?
**A.** 7.4 cm

**Q.** What about the Weight of root (0.0001 mg/l, 3 °C, 9 days) of the same molecule?
**A.** 2.9 g

**Q.** What about the Area of leaf (0.0001 mg/l, 3 °C, 12 days) of the same molecule?
**A.** 13.2 cm^2

**Q.** And the Height (0.0001 mg/l, 3 °C, 12 days)?
**A.** 7.5 cm

**Q.** What about the Number of leaf (0.0001 mg/l, 3 °C, 12 days) of the same molecule?
**A.** 3

**Q.** What about the Number of tiller (0.0001 mg/l, 3 °C, 12 days) of the same molecule?
**A.** 2

**Q.** And the Weight of root (0.0001 mg/l, 3 °C, 12 days)?
**A.** 2.9 g

**Q.** And the Area of leaf (0.0001 mg/l, 4 °C, 3 days)?
**A.** 10 cm^2

**Q.** What about the Height (0.0001 mg/l, 4 °C, 3 days) of the same molecule?
**A.** 6.9 cm

**Q.** And the Weight of root (0.0001 mg/l, 4 °C, 3 days)?
**A.** 2.5 g

**Q.** What about the Area of leaf (0.0001 mg/l, 4 °C, 6 days) of the same molecule?
**A.** 11.7 cm^2

**Q.** And the Height (0.0001 mg/l, 4 °C, 6 days)?
**A.** 7.3 cm

**Q.** What about the Weight of root (0.0001 mg/l, 4 °C, 6 days) of the same molecule?
**A.** 2.6 g

**Q.** What about the Area of leaf (0.0001 mg/l, 4 °C, 9 days) of the same molecule?
**A.** 13 cm^2

**Q.** And the Height (0.0001 mg/l, 4 °C, 9 days)?
**A.** 7.5 cm

**Q.** And the Weight of root (0.0001 mg/l, 4 °C, 9 days)?
**A.** 2.9 g

**Q.** And the Area of leaf (0.0001 mg/l, 4 °C, 12 days)?
**A.** 13.4 cm^2

**Q.** And the Height (0.0001 mg/l, 4 °C, 12 days)?
**A.** 7.6 cm

**Q.** What about the Number of leaf (0.0001 mg/l, 4 °C, 12 days) of the same molecule?
**A.** 3

**Q.** What about the Number of tiller (0.0001 mg/l, 4 °C, 12 days) of the same molecule?
**A.** 2

**Q.** And the Weight of root (0.0001 mg/l, 4 °C, 12 days)?
**A.** 2.9 g

**Q.** What about the Area of leaf (0.0001 mg/l, 5 °C, 3 days) of the same molecule?
**A.** 10.2 cm^2

**Q.** What about the Height (0.0001 mg/l, 5 °C, 3 days) of the same molecule?
**A.** 7.0 cm

**Q.** What about the Weight of root (0.0001 mg/l, 5 °C, 3 days) of the same molecule?
**A.** 2.5 g

**Q.** And the Area of leaf (0.0001 mg/l, 5 °C, 6 days)?
**A.** 12 cm^2

**Q.** And the Height (0.0001 mg/l, 5 °C, 6 days)?
**A.** 7.4 cm

**Q.** What about the Weight of root (0.0001 mg/l, 5 °C, 6 days) of the same molecule?
**A.** 2.7 g

**Q.** And the Area of leaf (0.0001 mg/l, 5 °C, 9 days)?
**A.** 13.6 cm^2

**Q.** And the Height (0.0001 mg/l, 5 °C, 9 days)?
**A.** 7.5 cm

**Q.** And the Weight of root (0.0001 mg/l, 5 °C, 9 days)?
**A.** 2.9 g

**Q.** What about the Area of leaf (0.0001 mg/l, 5 °C, 12 days) of the same molecule?
**A.** 14 cm^2

**Q.** What about the Height (0.0001 mg/l, 5 °C, 12 days) of the same molecule?
**A.** 7.7 cm

**Q.** What about the Number of leaf (0.0001 mg/l, 5 °C, 12 days) of the same molecule?
**A.** 3

**Q.** And the Number of tiller (0.0001 mg/l, 5 °C, 12 days)?
**A.** 2

**Q.** And the Weight of root (0.0001 mg/l, 5 °C, 12 days)?
**A.** 3.0 g

**Q.** What about the Area of leaf (0.001 mg/l, 1 °C, 3 days) of the same molecule?
**A.** 10.1 cm^2

**Q.** What about the Height (0.001 mg/l, 1 °C, 3 days) of the same molecule?
**A.** 6.9 cm

**Q.** What about the Weight of root (0.001 mg/l, 1 °C, 3 days) of the same molecule?
**A.** 2.8 g

**Q.** What about the Area of leaf (0.001 mg/l, 1 °C, 6 days) of the same molecule?
**A.** 11.3 cm^2

**Q.** And the Height (0.001 mg/l, 1 °C, 6 days)?
**A.** 7.1 cm

**Q.** What about the Weight of root (0.001 mg/l, 1 °C, 6 days) of the same molecule?
**A.** 3.1 g

**Q.** What about the Area of leaf (0.001 mg/l, 1 °C, 9 days) of the same molecule?
**A.** 12.6 cm^2

**Q.** What about the Height (0.001 mg/l, 1 °C, 9 days) of the same molecule?
**A.** 7.1 cm

**Q.** What about the Weight of root (0.001 mg/l, 1 °C, 9 days) of the same molecule?
**A.** 3.4 g

**Q.** And the Area of leaf (0.001 mg/l, 1 °C, 12 days)?
**A.** 13 cm^2

**Q.** What about the Height (0.001 mg/l, 1 °C, 12 days) of the same molecule?
**A.** 7.3 cm

**Q.** And the Number of leaf (0.001 mg/l, 1 °C, 12 days)?
**A.** 3

**Q.** And the Number of tiller (0.001 mg/l, 1 °C, 12 days)?
**A.** 3

**Q.** And the Weight of root (0.001 mg/l, 1 °C, 12 days)?
**A.** 3.9 g

**Q.** And the Area of leaf (0.001 mg/l, 2 °C, 3 days)?
**A.** 9.8 cm^2

**Q.** And the Height (0.001 mg/l, 2 °C, 3 days)?
**A.** 6.9 cm

**Q.** And the Weight of root (0.001 mg/l, 2 °C, 3 days)?
**A.** 2.8 g
